The values that follow come from patent US10231969B2, “Anti-neoplastic combinations and dosing regimens using CDK4/6 inhibitor compounds to treat RB-positive tumors” (G1 Therapeutics, Inc., priority 2014, dated 2019).

One data set has as its target CDK4/CyclinD1 (Homo sapiens, UniProt P11802). The experiment in a line: CDK4/cyclinD1 kinase assay (Nanosyn, Caliper microfluidic). The class given is biochemical. Conditions: read-out: CDK4/CycD1 IC50. The protocol:
(§1) Selected compounds disclosed herein were tested in CDK4/cyclinD1, CDK2/CycA and CDK2/cyclinE kinase assays by Nanosyn (Santa Clara, Calif.) to determine their inhibitory effect on these CDKs. The assays were performed using microfluidic kinase detection technology (Caliper Assay Platform). The compounds were tested in 12-point dose-response format in singlicate at Km for ATP. Phosphoacceptor substrate peptide concentration used was 1 μM for all assays and Staurosporine was used as the reference compound for all assays. Specifics of each assay are as described below:
CDK4/CyclinD1: Enzyme concentration: 1 nM; ATP concentration: 200 μM; Incubation time: 10 hr.

The next data set has as its target T1, CDK2/CyclinE (Homo sapiens, UniProt P24941).
T1 construct: Nanosyn (Santa Clara, Calif.) ran the assay as a service
The experiment in a line: CDK2/cyclinE kinase assay (Nanosyn, Caliper microfluidic). The class given is biochemical. Conditions: Table 2; for IC50: ATP 100 μM, read-out: CDK2/CycE IC50. As for the experimental part:
Selected compounds disclosed herein were tested in CDK4/cyclinD1, CDK2/CycA and CDK2/cyclinE kinase assays by Nanosyn (Santa Clara, Calif.) to determine their inhibitory effect on these CDKs. The assays were performed using microfluidic kinase detection technology (Caliper Assay Platform). The compounds were tested in 12-point dose-response format in singlicate at Km for ATP. Phosphoacceptor substrate peptide concentration used was 1 μM for all assays and Staurosporine was used as the reference compound for all assays.

A further data set has as its target T2, CDK2/CyclinA (Homo sapiens, UniProt P24941).
T2 construct: Nanosyn (Santa Clara, Calif.) ran the assay as a service
The data set can be described thus: CDK2/CycA kinase assay (Nanosyn, Caliper microfluidic). The class given is biochemical. Conditions: Table 2; for IC50: ATP 50 μM. As for the experimental part:
as §1
CDK2/CyclinA: Enzyme concentration: 0.2 nM; ATP concentration: 50 μM; Incubation time: 3 hr.

In data set [1] the test system is MCF7 (breast adenocarcinoma—Rb-positive). The data set can be described thus: Cellular proliferation assay (CellTiter-Glo), MCF7. The class given is cell-based. The note with it: Homo sapiens, MCF7, 144 h, six days. The protocol: (§2) Cellular proliferation assays were further conducted using the following cancer cell lines: MCF7 (breast adenocarcinoma—Rb-positive), ZR-75-1 (breast ductal carcinoma—Rb-positive), H69 (human small cell lung cancer—Rb-negative) cells, or A2058 (human metastatic melanoma cells—Rb-negative). These cells were seeded in Costar (Tewksbury, Mass.) 3093 96 well tissue culture treated white walled/clear bottom plates. Cells were treated with the compounds of Table 1 as nine point dose response dilution series from 10 uM to 1 nM. Cells were exposed to compounds and then cell viability was determined after either four (H69) or six (MCF7, ZR75-1, A2058) days as indicated using the CellTiter-Glo® luminescent cell viability assay (CTG; Promega, Madison, Wis., United States of America) following the manufacturer's recommendations. Plates were read on BioTek (Winooski, Vt.) Syngergy2 multi-mode plate reader. The Relative Light Units (RLU) were plotted as a result of variable molar concentration and data was analyzed using Graphpad (LaJolla, Calif.) Prism 5 statistical software to determine the EC50 for each compound.
On the technique in general: Cellular ATP, detected with luciferase, serves as a proxy for viable cell number.

The subject of data set [2] is H69 (human small cell lung cancer—Rb-negative) cells. The experiment in a line: Cellular proliferation assay (CellTiter-Glo), H69. The class given is cell-based. The note with it: NCI-H69, 96 h, four days. As for the experimental part: as §2
Data set [3] has as its system A2058 (human metastatic melanoma cells—Rb-negative). The data set can be described thus: Cellular proliferation assay (CellTiter-Glo), A2058. The class given is cell-based. The note with it: A2058, 144 h, six days. The protocol:
as §2

Data set [4] relates to HS68 cells (human skin fibroblast cell line (Rb-positive)). The data set can be described thus: G1 arrest (cellular G1 and S-phase) assay. The class given is cell-based. As for the experimental part:
The fraction of cells in G0-G1 DNA cell cycle versus the fraction in S-phase DNA cell cycle was determined using FlowJo 7.2.2 analysis.
The compounds listed in Table 1 were tested for their ability to arrest HS68 cells at the G1 phase of the cell cycle.

Data set [5] relates to ER+, HER2− locally advanced or metastatic breast cancer. Conditions: post-menopausal women, at time of final PFS analysis; cited from earlier work.
Data set [6] has as its system ZR-75-1 (breast ductal carcinoma—Rb-positive). The experiment in a line: Cellular proliferation assay (CellTiter-Glo), ZR-75-1. The class given is cell-based. Conditions: Homo sapiens, ZR-75-1, 144 h, six days, read-out: ZR75-1 Cellular EC50. The protocol:
as §2

For data set [7], the system named is Rb phosphorylation (Ser780, Ser807/811) in WM2664. The experiment in a line: Rb phosphorylation western blot, WM2664. The class given is cell-based. Conditions: WM2664, 300 nM, by 16 hours post exposure. The protocol:
(§3) The CDK4/6-cyclin D complex is essential for progression from G1 to the S-phase of the DNA cell cycle. This complex phosphorylates the retinoblastoma tumor suppressor protein (Rb). […] Samples were lysed and protein was assayed by western blot analysis. Rb phosphorylation was measured at two sites targeted by the CDK4/6-cyclin D complex, Ser780 and Ser807/811 using species specific antibodies.

The subject of data set [8] is bone marrow proliferating cells. The experiment in a line: EdU incorporation in hematopoietic cells after i.p. dose. The class given is in vivo, C57BL/6 female mice. Conditions: single i.p. dose 50 mg/kg or 100 mg/kg. As for the experimental part: At the designated time: 30 min, 1 h, 2 h, 4 h, 6 h, 8 h, 12 h, 18 h, 24 h or 48 h, mice received an injection of 5′-ethynyl-2′-deoxyuridine (EdU). Two hours post EdU injection, mice were sacrificed. As illustrated in FIGS. 12-19, cell lines were isolated and incorporation of EdU was measured. Hematopoietic cell lineages were identified using known cell lineage markers. (See, for example, Challen, et al. “Mouse Hematopoietic Stem Cell Identification and Analysis”, Cytometry A. (2009) 75(1): 14-24).

In data set [9] the test system is 456 (395 non-mutant) kinases. The data set can be described thus: DiscoveRx KINOMEscan profiling. The class given is binding. The note with it: 1000 nM.
The subject of data set [10] is Rb phosphorylation (Ser780, Ser807/811) in tHS68. The experiment in a line: Rb phosphorylation western blot, tHS68. The note with it: tHS68, 300 nM, by 16 hours post exposure. The class given is cell-based. As for the experimental part:
as §3
A general note: In western blotting, separated proteins are transferred to a membrane and probed.

Data set [11] has as its system tHS68 (CDK4/6-dependent; Rb-positive). The experiment in a line: Cell cycle arrest, propidium iodide flow cytometry, tHS68. The note with it: tHS68, 24 hours, highest concentration shown (28% at baseline). The class given is cell-based. From the text: To test the ability of CDK4/6 inhibitors to induce a clean G1-arrest in Rb-positive cells, a cell based screening method was used consisting of two CDK4/6-dependent cell lines (tHS68 and WM2664; Rb-positive) and one CDK4/6-independent (A2058; Rb-negative) cell line. […] At the conclusion of the experiment, cells were harvested, fixed, and stained with propidium iodide (a DNA intercalator), which fluoresces strongly red (emission maximum 637 nm) when excited by 488 nm light. Samples were run on Dako Cyan flow cytometer and >10,000 events were collected for each sample. Data were analyzed using FlowJo 2.2 software developed by TreeStar, Inc.
Background: A flow cytometer gives signals particle by particle.

Data set [12] in a line: Peripheral blood CBC on day 14 in MCF7 implant model. The class given is in vivo, Immunodeficient mice. Conditions: Day 14, 100 mg/kg PO QD. From the text: Specific cell counts analyzed were white blood cells (WBC: FIG. 21A), lymphocytes (FIG. 21B), neutrophils (FIG. 21C), monocytes (FIG. 21D), platelets (FIG. 21E), and red blood cells (FIG. 21F).

Read-outs that look alike come from different tables or passages of the source.

CDK4/CyclinD1, sequence (P11802 whole entry): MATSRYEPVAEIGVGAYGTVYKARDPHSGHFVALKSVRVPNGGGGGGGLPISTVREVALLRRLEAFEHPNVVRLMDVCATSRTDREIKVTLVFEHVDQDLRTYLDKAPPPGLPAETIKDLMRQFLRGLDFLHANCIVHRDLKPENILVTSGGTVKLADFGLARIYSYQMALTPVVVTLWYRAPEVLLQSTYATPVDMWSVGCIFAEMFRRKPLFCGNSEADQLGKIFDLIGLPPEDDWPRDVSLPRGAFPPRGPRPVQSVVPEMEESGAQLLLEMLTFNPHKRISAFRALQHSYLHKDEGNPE
CDK4/CyclinD1, sequence (P24385 whole entry partner): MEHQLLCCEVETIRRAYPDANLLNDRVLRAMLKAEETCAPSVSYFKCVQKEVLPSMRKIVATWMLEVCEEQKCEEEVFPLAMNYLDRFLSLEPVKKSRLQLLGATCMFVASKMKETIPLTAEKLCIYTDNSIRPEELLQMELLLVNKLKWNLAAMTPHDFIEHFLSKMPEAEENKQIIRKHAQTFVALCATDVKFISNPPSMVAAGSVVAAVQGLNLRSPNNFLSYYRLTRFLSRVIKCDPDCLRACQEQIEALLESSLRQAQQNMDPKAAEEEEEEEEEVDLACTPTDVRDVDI

`C[C@@H]1CN(c2ccc(Nc3ncc4cc5n(c4n3)C3(CCCCC3)CNC5=O)nc2)CCN1C[C@@H](C)O` [J]: the IC50 on CDK4/CyclinD1 (Table 2, ATP at Km (200 μM)) is 0.0007 µM.
On the same count and under the same terms, the result for `CCOCCN1CCN(c2ccc(Nc3ncc4cc5n(c4n3)C3(CCCC3)CNC5=O)nc2)CC1` [MMM] reads 0.0032 µM; that for `CCN1[C@H](C)CN(c2ccc(Nc3ncc4cc5n(c4n3)C3(CCCCC3)CNC5=O)nc2)C[C@@H]1C` [FF], 0.0012 µM.
Turning to `CC1CN(c2ccc(Nc3ncc4cc5n(c4n3)C3(CCCC3)CNC5=O)nc2)CCN1CCC(C)(C)C` (stereo not drawn) [PPP], the IC50 was 0.0008 µM on CDK4/CyclinD1 (Table 2, ATP at Km (200 μM)); 16.5 µM on CDK2/CyclinE; 2.64 µM on CDK2/CyclinA.
As a reminder, the EC50 is the concentration that produces a half-maximal response. Turning to `CN1CCN(C(=O)c2ccc(Cc3ncc4cc5n(c4n3)C3(CCCC3)CNC5=O)nc2)CC1` [BBB], the EC50 is 0.123 µM in [1], greater than 3 µM in data set [2], greater than 3 µM in data set [3] and 0.23 µM in data set [4]. Also, the IC50 at CDK4/CyclinD1 (Table 2, ATP at Km (200 μM)) turned out to be 0.0028 µM; at CDK2/CyclinE, 0.187 µM; against CDK2/CyclinA, 0.085 µM. For the same molecule, at CDK2/CyclinE (ratio of IC50s), the “Fold Selectivity (CDK2/CycE/CDK4)” value is 68. In addition, the “Fold Selectivity (CDK2/CycA/CDK4)” value at CDK2/CyclinA (ratio of IC50s) is 31.
As to `N#Cc1ccc(C(c2ccc(C#N)cc2)n2cncn2)cc1` [letrozole], the “median OS” value in [5] is 33.3 months.
On to `C[C@@H](O)CN1CCN(c2ccc(Nc3ncc4cc5n(c4n3)C3(CCCCC3)CNC5=O)nc2)CC1` [S], for which, at CDK4/CyclinD1 (Table 2, ATP at Km (200 μM)), the IC50 worked out at 0.0017 µM.
`O=C1NCC2(CCCC2)n2c1cc1cnc(Nc3ccc(N4CCC(N5CCOCC5)CC4)cn3)nc12` [WW] gave an EC50 in [4] of 0.4 µM.
With `CC(C)[C@H]1CNC(=O)c2cc3cnc(Nc4ccc(N5CCNCC5)cn4)nc3n21` [UUU], the IC50 at CDK4/CyclinD1 (Table 2, ATP at Km (200 μM)) amounted to 0.018 µM.
On to `C[C@H]1CN(c2ccc(Nc3ncc4cc5n(c4n3)C3(CCCCC3)CNC5=O)nc2)CCN1CCC(C)(C)C` [M], for which the IC50 at CDK4/CyclinD1 (Table 2, ATP at Km (200 μM)) was 0.0023 µM.
In [4], `CCN(CC)C1CCN(c2ccc(Nc3ncc4cc5n(c4n3)C3(CCCC3)CNC5=O)nc2)C1` (stereo not drawn) [UU] came in with an EC50 of 0.3 µM.
`CCN(CC)C1CCN(c2ccc(Nc3ncc4cc5n(c4n3)C3(CCCCC3)CNC5=O)nc2)C1` (stereo not drawn) [QQ] displayed an EC50 in [4] of 0.12 µM.
Take `CC(C)N1CCN(c2ccc(Nc3ncc4cc5n(c4n3)C3(CCCCC3)CNC5=O)nc2)C[C@H]1C` [L]: the IC50 on CDK4/CyclinD1 (Table 2, ATP at Km (200 μM)) was 0.0057 µM.
On to `CC1CN(c2ccc(Nc3ncc4cc5n(c4n3)C3(CCCCC3)CNC5=O)nc2)C[C@@H](C)N1CC1CC1` (stereo partly drawn) [OO], for which the EC50 was 0.12 µM in data set [1]; greater than 3 µM in data set [2]; greater than 3 µM in [3]; 0.229 µM in data set [6]; 0.095 µM in data set [4]. In addition, the IC50 on CDK4/CyclinD1 (Table 2, ATP at Km (200 μM)) came out at 0.009 µM; at CDK2/CyclinE, 3.98 µM; on CDK2/CyclinA, 0.57 µM.
As to `CN1CCN(c2ccc(Nc3ncc4cc5n(c4n3)C3(CCCCC3)CNC5=O)nc2)CC1` [Compound T], the “Rb phosphorylation” value in [7] and in data set [10] was “blocks Rb phosphorylation” throughout. The “EdU incorporation, bone marrow” value in data set [8] is “dose and time dependent reduction and recovery of proliferating cells”. In addition, the figures for the “number of 395 non-mutant kinases inhibited” value in [9] (inhibitory threshold of 65%), in data set [9] (inhibitory threshold of 90%) and in data set [9] (inhibitory threshold of 99%) were 92, 31 and 6, respectively. Further, the “share of 395 non-mutant kinases inhibited” value in [9] (inhibitory threshold of 65%) is 23.3%; in [9] (inhibitory threshold of 90%), 7.8%; in data set [9] (inhibitory threshold of 99%), 1.5%. For the same molecule, the “cells in S-phase” value in [11] is listed as 6%.
`CC(C)N1CCN(c2ccc(Nc3ncc4cc5n(c4n3)C3(CCCCC3)CNC5=O)nc2)CC1` [Compound GG]: the IC50 on CDK4/CyclinD1 (Table 3) was 0.00106 µM. At CDK4/CyclinD1, the IC50 was determined as 0.001 µM. Further, in data set [12], the “lymphocyte count” value is reported as “reduced cell counts”, the “neutrophil count” value is given as “reduced cell counts”, the “platelet count” value is on record as “reduced cell counts” and the “red blood cell count” value is recorded as “reduced cell counts”. In addition, the “white blood cell count” value in data set [12] is on record as “reduced cell counts”.
